Calls of active or inactive are those of the source.

Experiment [1] can be described thus: THP-1 cell cytotoxicity, dose response, cytotoxicity control for Vif-APOBEC3G degradation inhibitor project, THP-1 cells (AID 1117359). The class given is functional. The note with it: Human immunodeficiency virus 1, THP-1.
Experiment [2] addresses T1, Carboxy-terminal domain RNA polymerase II polypeptide A small phosphatase 1 (Homo sapiens, UniProt Q9GZU7).
T1 sequence (Q9GZU7 whole entry): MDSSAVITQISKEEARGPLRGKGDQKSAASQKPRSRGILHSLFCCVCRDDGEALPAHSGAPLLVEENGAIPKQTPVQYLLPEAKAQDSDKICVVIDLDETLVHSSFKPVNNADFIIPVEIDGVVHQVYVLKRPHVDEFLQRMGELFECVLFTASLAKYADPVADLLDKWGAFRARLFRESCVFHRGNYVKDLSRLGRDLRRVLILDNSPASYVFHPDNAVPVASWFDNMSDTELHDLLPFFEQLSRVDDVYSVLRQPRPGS
In words: inhibitors of CTDSP1, concentration-response testing, biochemical assay, absorbance-based, actives from ultra-high-throughput screening (AID 540297). It is filed as functional.

A further experiment deals with Genome polyprotein (Hepatitis C virus, UniProt Q2Q167). In words: HCV core protein dimerization inhibitors, dose response, biochemical, TR-FRET (AID 2159).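 Also: blocks dimerization of HCV core protein measured by TR-FRET between tagged core106 pairs.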 Also on record: species or system Hepacivirus hominis.
The next experiment has as its system Vero. In words: cytotoxicity of synthesized analogs in Vero cells, SAR follow-up, cytotoxicity control for West Nile virus antiviral project, cell-based, set II (AID 2402). The class given is functional. Conditions: Chlorocebus sabaeus.
Experiment [3] addresses E3 ubiquitin-protein ligase Mdm2 (Homo sapiens, UniProt Q00987). In words: enhancers of MDM2-luciferase reporter signal, concentration-effect titration, project on inhibitors of MDM2 ubiquitin ligase, cellular assay, luminescent readout, 384-well plate format (AID 1394).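 Also: MDM2 E3 inhibitors raise luminescence so EC50 is for signal enhancement.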 It is filed as functional. Background: A reporter such as luciferase makes a cellular process visible.

Experiment [4] addresses T2, NADPH oxidase 1 (Homo sapiens, UniProt Q9Y5S8). It is filed as functional, cell-based.
Experiment [5] addresses T2, NADPH oxidase 1. Briefly: Late-stage luminescence-based cell-based dose response assay to identify inhibitors of NADPH oxidase 1 (NOX1): Synthesized analogs 2. It is filed as functional.
Experiment [6] is described as follows: Jurkat T cell cytotoxicity, dose response, cytotoxicity control for P. falciparum gametocyte viability project, luminescence (AID 1117277).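 Also: potency reflects loss of cellular ATP meaning fewer viable cells.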 The class given is functional, cell-based.
Experiment [7] can be described thus: P. falciparum late gametocyte killing, dose response, luminescence (AID 1117278).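 Also: gametocytes exposed to compound for 24 hours.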 The class given is functional, cell-based.
Experiment [8] is described as follows: M. tuberculosis growth inhibition, HTS (AID 449762). The class given is functional.
The target in experiment [9] is Solute carrier family 12 member 2/member 5 (Homo sapiens, UniProt P55011+Q9H2X9). Briefly: KCC2 and NKCC1 inhibition by rubidium flux, cell-based, NKCC1 counter-screen (AID 1734). It is filed as functional, HEK293. Background: A counterscreen serves to expose hits that act by an unwanted route or on another target.
The target of experiment [10] is Inward rectifier potassium channel 2 (Mus musculus, UniProt P35561). In words: Manual electrophysiological patch clamp assay for SAR compounds that inhibit/block inward-rectifying potassium ion channel Kir2.1. [Related pubchem assays: 1843 (Summary assay for Kir2.1 inhibitor assays.), 1672 (Primary HTS of 305616 compounds where 2592 were identified as active.)]. It is filed as functional.
Sequence of Inward rectifier potassium channel 2 (P35561 whole entry): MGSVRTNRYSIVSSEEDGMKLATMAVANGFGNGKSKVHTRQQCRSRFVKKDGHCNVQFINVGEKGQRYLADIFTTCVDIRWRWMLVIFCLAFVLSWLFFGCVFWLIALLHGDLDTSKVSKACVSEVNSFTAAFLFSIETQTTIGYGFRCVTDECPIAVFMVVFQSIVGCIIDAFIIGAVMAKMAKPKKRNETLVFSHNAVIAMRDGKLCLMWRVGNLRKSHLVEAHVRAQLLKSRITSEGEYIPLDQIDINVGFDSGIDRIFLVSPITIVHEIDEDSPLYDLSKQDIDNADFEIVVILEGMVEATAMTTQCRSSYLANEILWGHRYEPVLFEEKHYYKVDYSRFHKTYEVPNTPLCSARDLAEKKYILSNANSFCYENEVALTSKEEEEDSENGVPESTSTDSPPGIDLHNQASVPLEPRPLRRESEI

T2 sequence (Q9Y5S8 whole entry): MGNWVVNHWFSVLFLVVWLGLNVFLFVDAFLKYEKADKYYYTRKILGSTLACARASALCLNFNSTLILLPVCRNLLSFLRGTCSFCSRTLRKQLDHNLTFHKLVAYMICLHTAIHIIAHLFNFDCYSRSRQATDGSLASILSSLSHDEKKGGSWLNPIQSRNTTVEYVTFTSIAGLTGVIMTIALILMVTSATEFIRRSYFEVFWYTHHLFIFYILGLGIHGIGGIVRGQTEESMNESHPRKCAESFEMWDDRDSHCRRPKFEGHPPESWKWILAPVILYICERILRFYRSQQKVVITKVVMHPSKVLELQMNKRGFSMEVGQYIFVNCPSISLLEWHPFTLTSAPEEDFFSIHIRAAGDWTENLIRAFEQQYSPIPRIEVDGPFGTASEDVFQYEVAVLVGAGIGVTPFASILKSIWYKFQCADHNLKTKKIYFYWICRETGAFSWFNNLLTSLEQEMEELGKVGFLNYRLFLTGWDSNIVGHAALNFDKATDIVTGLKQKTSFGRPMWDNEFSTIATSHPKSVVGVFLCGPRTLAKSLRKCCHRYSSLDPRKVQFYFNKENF
Sequence of E3 ubiquitin-protein ligase Mdm2 (Q00987 whole entry): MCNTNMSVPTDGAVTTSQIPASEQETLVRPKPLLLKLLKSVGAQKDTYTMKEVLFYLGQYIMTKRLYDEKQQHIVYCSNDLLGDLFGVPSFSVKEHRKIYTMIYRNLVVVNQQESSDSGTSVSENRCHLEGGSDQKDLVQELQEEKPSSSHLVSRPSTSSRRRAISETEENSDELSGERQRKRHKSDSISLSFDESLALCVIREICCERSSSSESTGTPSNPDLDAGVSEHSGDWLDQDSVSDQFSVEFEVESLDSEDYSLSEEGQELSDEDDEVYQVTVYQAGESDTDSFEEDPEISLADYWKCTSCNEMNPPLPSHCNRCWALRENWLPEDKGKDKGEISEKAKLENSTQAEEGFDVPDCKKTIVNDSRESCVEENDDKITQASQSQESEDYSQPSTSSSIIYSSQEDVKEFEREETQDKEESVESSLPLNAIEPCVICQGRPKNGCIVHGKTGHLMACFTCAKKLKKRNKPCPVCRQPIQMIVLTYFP
Sequence of Genome polyprotein (Q2Q167 whole entry): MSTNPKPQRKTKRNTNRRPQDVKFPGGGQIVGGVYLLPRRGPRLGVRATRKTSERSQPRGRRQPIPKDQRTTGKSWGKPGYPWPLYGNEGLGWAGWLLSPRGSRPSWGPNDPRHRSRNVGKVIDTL

Take `CN(CC(=O)Nc1cccc(F)c1)C(=O)c1cccc(-n2cccc2)c1`: the CC50 (in general, the concentration giving 50% cytotoxicity) in experiment [1] is > 40 µM (active). The values for the IC50 (in [2]; at Genome polyprotein) were 6.19 µM (active) and > 49.8 µM (not active), respectively.
As for `O=c1c2cc([N+](=O)[O-])ccc2nc2n1CCC2`, in the experiment on Vero, the 50% cytotoxic concentration (CC50) was > 100 µM (active).
In the case of `COc1ccc(-c2nsc(SCC(=O)Nc3ccc4c(c3)OCO4)n2)cc1`, in [3], the EC50 (commonly the midpoint of the concentration-response curve) is 0.19 µM (not active).
With `COc1ccc(NC(=O)Nc2ccc3c(c2)CCN3C(C)=O)cc1`, the 50% inhibitory concentration (IC50) – broadly, the concentration that gives 50% inhibition – against NADPH oxidase 1 [4] is given as > 17 µM (not active).
`ClCCN1c2ccccc2Sc2ccc(Cl)cc21`: the IC50 at NADPH oxidase 1 [5] is given as > 50 µM (not active).
As to `O=C(Cn1cnc2ccccc2c1=O)Nc1ccc(S(=O)(=O)N2CCOCC2)cc1`, the IC50 in experiment [6] was > 83.3 µM (inactive); in [7], > 109 µM (inactive).
In the case of `CC1(CCc2ccccc2)N=C(S)N(c2ccc(Cl)cc2)N1` (configuration not stated), the IC50 in experiment [8] is > 100 µM (active).
On to `O=C(O)CCn1c(SCc2cccc3ccccc23)nc2ccccc21`, for which, in [9], the IC50 was 36 µM (active).
`COc1ccc(CNCc2ccccc2Cl)cc1`: the IC50 in experiment [10] was 13.3 µM (active).

These data come from ChEMBL document CHEMBL1201862, “PubChem BioAssay data set” (2004).
